# ± gives the standard deviation of the averaged measurements.
# Assays:
# Experiment in all cases: level (log10 ratio to DMSO vehicle control); higher = higher biomarker level / cell amount than vehicle control
# Details in all cases: in DMSO
# Perfluorooctanamidine = compound: N=C(N)C(F)(F)C(F)(F)C(F)(F)C(F)(F)C(F)(F)C(F)(F)C(F)(F)F [Perfluorooctanamidine]
# Procedure: (§1)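 BioMAP Diversity Plus panel of 12 human primary cell co-culture systems (3C, 4H, LPS, SAg, BT, BF4T, BE3C, CASM3C, HDF3CGF, KF3CT, MyoF, Mphg). Compounds were added 1 h before stimulation and left for 24 h (MyoF 48 h; BT 72 h for soluble read-outs or 6 d for IgG). Biomarkers were read by ELISA, cytotoxicity by SRB, PBMC viability and proliferation by Alamar Blue. Each well value was divided by the mean of 8 DMSO control wells on the same plate and log10 transformed; duplicate blinded samples were tested at 4 concentrations.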
# Perfluorohexanoic acid = compound: O=C(O)C(F)(F)C(F)(F)C(F)(F)C(F)(F)C(F)(F)F [Perfluorohexanoic acid]
# Procedure: as §1
# [1] = compound: O=C(O)CCC(F)(F)C(F)(F)C(F)(F)F [3:3 Fluorotelomer carboxylic acid]
# Procedure: as §1
# [2] = compound: OCC(F)(F)C(F)(F)C(F)(F)C(F)(F)C(F)(F)C(F)F [1H,1H,7H-Dodecafluoro-1-heptanol]
# Procedure: as §1
Test System,level (log10) (Perfluorooctanamidine; 6700 nM),level (log10) (Perfluorooctanamidine; 20000 nM),level (log10) (Perfluorooctanamidine; 60000 nM),level (log10) (Perfluorohexanoic acid; 6700 nM),level (log10) (Perfluorohexanoic acid; 20000 nM),level (log10) (Perfluorohexanoic acid; 60000 nM),level (log10) ([1]; 6700 nM),level (log10) ([1]; 20000 nM),level (log10) ([1]; 60000 nM),level (log10) ([2]; 6700 nM),level (log10) ([2]; 20000 nM),level (log10) ([2]; 60000 nM)
HDF3CGF:CXCL10/IP-10,0.024 ± 0.014,-0.004 ± 0.034,-0.122,-0.0135 ± 0.023,-0.0215 ± 0.0035,-0.0235 ± 0.013,-0.0005 ± 0.013,0.003 ± 0.0042,-0.011 ± 0.011,-0.0015 ± 0.015,-0.0055 ± 0.0021,-0.011 ± 0.018
KF3CT:TIMP-2,0.01 ± 0.0014,0 ± 0.02,0.035,0.004 ± 0.016,-0.0125 ± 0.0035,-0.0125 ± 0.0078,-0.002 ± 0.021,-0.006 ± 0.0099,-0.0025 ± 0.016,0.0015 ± 0.005,0.0015 ± 0.0021,0.0015 ± 0.0064
MyoF:PAI-I,0.0015 ± 0.0064,-0.0075 ± 0.013,0.021,0.0025 ± 0.005,0.002 ± 0.0028,0.009,-0.0055 ± 0.005,-0.003,0.003 ± 0.0042,-0.0045 ± 0.013,-0.0015 ± 0.011,0.007 ± 0.0057
3C:CD62E/E-Selectin,-0.0045 ± 0.023,-0.005 ± 0.027,-0.039,-0.0065 ± 0.0092,-0.007 ± 0.011,0.0145 ± 0.029,-0.006 ± 0.0042,0.001 ± 0.013,0.006 ± 0.0071,-0.0135 ± 0.025,-0.007 ± 0.0042,0.0205 ± 0.025
HDF3CGF:Collagen I,-0.015 ± 0.0085,-0.025 ± 0.03,-0.021,-0.035 ± 0.033,0.02 ± 0.025,-0.0035 ± 0.054,-0.029 ± 0.0042,-0.006 ± 0.035,0.0325 ± 0.07,-0.0095 ± 0.011,-0.019 ± 0.027,0.0025 ± 0.08
HDF3CGF:CD54/ICAM-1,-0.0235 ± 0.0064,-0.014 ± 0.013,-0.072,-0.009 ± 0.013,-0.017 ± 0.013,-0.019 ± 0.037,-0.0025 ± 0.0078,-0.0135 ± 0.015,-0.017 ± 0.0028,0.006 ± 0.0085,0.0015 ± 0.012,-0.003 ± 0.0099
MyoF:alpha-SM Actin,0.0015 ± 0.054,-0.009 ± 0.042,0.066,-0.021 ± 0.016,0.011 ± 0.0099,0.013 ± 0.037,-0.011 ± 0.045,0.002 ± 0.023,-0.0055 ± 0.013,-0.012 ± 0.0014,0.0015 ± 0.005,-0.0115 ± 0.011
HDF3CGF:Proliferation 72hr,-0.0255 ± 0.043,-0.0515 ± 0.1,-0.564,0.04 ± 0.0014,0.015 ± 0.034,0.0305 ± 0.037,-0.0095 ± 0.015,0.0385 ± 0.0092,0.021 ± 0.027,0.0045 ± 0.066,0 ± 0.072,0.003 ± 0.044
CASM3C:CD142/Tissue Factor,-0.022 ± 0.024,-0.033 ± 0.0014,0.042,-0.0125 ± 0.013,-0.019 ± 0.0042,-0.0145 ± 0.005,0.0015 ± 0.012,-0.0015 ± 0.013,-0.0305 ± 0.054,0.0235 ± 0.043,0.0015 ± 0.0064,-0.0185 ± 0.0035
MyoF:CD106/VCAM-1,0.0115 ± 0.026,-0.002 ± 0.018,0.011,0.002 ± 0.0057,0.002 ± 0.0071,-0.0095 ± 0.013,-0.0005 ± 0.012,-0.016 ± 0.0085,-0.013 ± 0.0085,-0.014 ± 0.021,-0.0115 ± 0.0092,-0.019 ± 0.016
MyoF:bFGF,-0.0085 ± 0.032,-0.0115 ± 0.03,0.044,0.0005 ± 0.005,-0.0105 ± 0.019,0.0005 ± 0.021,0.0025 ± 0.0021,0.0025 ± 0.0092,0.0085 ± 0.0092,0.0085 ± 0.0064,0.0065 ± 0.015,0.0065 ± 0.013
lMphg:SRB,-0.006 ± 0.016,0.004 ± 0.016,0.001,-0.019 ± 0.0085,-0.0175 ± 0.0064,-0.006 ± 0.0085,-0.0305 ± 0.026,-0.0105 ± 0.021,-0.013 ± 0.0042,-0.018 ± 0.028,0.0015 ± 0.005,-0.0025 ± 0.00071

# — the supplement of paper PMC10331698
